# Experimental data published in ChEMBL document CHEMBL1201862, “PubChem BioAssay data set” (2004).
#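 Exposure lasted 48 hours, with cells grown in 96-well plates and compounds tested at five concentrations. GI50 is the concentration that inhibits growth by half.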 The source made the active and inactive calls. Cut-off read from the data, not from the text of the source: active = GI50 up to about 1.1 µM and inactive = higher.
# Assays:
# Assay in all cases: NCI anticancer screen, dose series, 48 h
# [1] = tested on: DLD-1
# [2] = tested on: HOP-62
# [3] = tested on: OVCAR-3
# [4] = tested on: SW-620
# [5] = tested on: HOP-18
# [6] = tested on: UACC-62
# [7] = tested on: CAKI-1
# [8] = tested on: 786-0
# [9] = tested on: XF498
# [10] = tested on: Malme-3M
# [11] = tested on: UACC-257
# [12] = tested on: KM12
# [13] = tested on: NCI-H23
# [14] = tested on: HCC 2998
# [15] = tested on: SK-OV-3
# [16] = tested on: U-251
# [17] = tested on: M19-MEL
# [18] = tested on: DMS-114
# [19] = tested on: SNB-19
# [20] = tested on: SN12C
# [21] = tested on: ACHN
# [22] = tested on: KM-20L2
# [23] = tested on: MOLT-4
# [24] = tested on: SNB-78
# [25] = tested on: SF-268
# [26] = tested on: EKVX
# [27] = tested on: IGROV-1
# [28] = tested on: OVCAR-8
# [29] = tested on: OVCAR-4
# [30] = tested on: SF-539
# [31] = tested on: K562
# [32] = tested on: OVCAR-5
# [33] = tested on: SK-MEL-28
# [34] = tested on: NCI-H460
# [35] = tested on: SF-295
# [36] = tested on: UO-31
# [37] = tested on: HT-29
# [38] = tested on: CCRF-CEM
# [39] = tested on: RPMI-8226
# [40] = tested on: SNB-75
# [41] = tested on: TK-10
# [42] = tested on: LXFL 529
# [43] = tested on: A549
# [44] = tested on: NCI-H522
# [45] = tested on: COLO 205
# [46] = tested on: SK-MEL-2
# [47] = tested on: SK-MEL-5
# [48] = tested on: HCT-116
# [49] = tested on: A498
# [50] = tested on: M14
# [51] = tested on: RXF 393
# [52] = tested on: HOP-92
# [53] = tested on: HL-60
# [54] = tested on: SR
# [55] = tested on: DMS-273
# [56] = tested on: LOX IMVI
# [57] = tested on: NCI-H226
# [58] = tested on: HCT-15
smiles,measurement,setting,value
COc1cc2cccc(NC(=O)c3cc(OC)c(OC)c(OC)c3Br)c2cc1OC,GI50,[1],24.8 µM (inactive)
same,GI50,[2],17.3 µM (inactive)
same,GI50,[3],13.4 µM (inactive)
same,GI50,[4],24.8 µM (inactive)
same,GI50,[5],20.6 µM (inactive)
same,GI50,[6],10.3 µM (inactive)
same,GI50,[7],17.6 µM (inactive)
same,GI50,[8],29.2 µM (inactive)
same,GI50,[9],2.4 µM (inactive)
same,GI50,[10],18.5 µM (inactive)
same,GI50,[11],3.85 µM (inactive)
same,GI50,[12],11.1 µM (inactive)
same,GI50,[13],8 µM (inactive)
same,GI50,[14],28.8 µM (inactive)
same,GI50,[15],22.5 µM (inactive)
same,GI50,[16],22.3 µM (inactive)
same,GI50,[17],10.2 µM (inactive)
same,GI50,[18],3.12 µM (inactive)
same,GI50,[19],14.2 µM (inactive)
same,GI50,[20],16.6 µM (inactive)
same,GI50,[21],11.5 µM (inactive)
same,GI50,[22],25.7 µM (inactive)
same,GI50,[23],2.79 µM (inactive)
same,GI50,[24],17.1 µM (inactive)
same,GI50,[25],18.5 µM (inactive)
same,GI50,[26],21.1 µM (inactive)
same,GI50,[27],14.4 µM (inactive)
same,GI50,[28],12.9 µM (inactive)
same,GI50,[29],9.02 µM (inactive)
same,GI50,[30],15.4 µM (inactive)
same,GI50,[31],12.5 µM (inactive)
same,GI50,[32],10 µM (inactive)
same,GI50,[33],16.1 µM (inactive)
same,GI50,[34],12.5 µM (inactive)
same,GI50,[35],12.5 µM (inactive)
same,GI50,[36],5.9 µM (inactive)
same,GI50,[37],21.8 µM (inactive)
same,GI50,[38],4.56 µM (inactive)
same,GI50,[39],2.45 µM (inactive)
same,GI50,[40],26.9 µM (inactive)
same,GI50,[41],29.2 µM (inactive)
same,GI50,[42],2.52 µM (inactive)
same,GI50,[43],14.1 µM (inactive)
same,GI50,[44],11.8 µM (inactive)
same,GI50,[45],12.9 µM (inactive)
same,GI50,[46],19.8 µM (inactive)
same,GI50,[47],3.24 µM (inactive)
same,GI50,[48],11.9 µM (inactive)
same,GI50,[49],30.5 µM (inactive)
same,GI50,[50],11.3 µM (inactive)
COC(=O)c1c2c(cc3c1CC1(Cc4cc5c(c(C(C)=O)c4C1)CCC5)C3)CCC2 (stereo not drawn),GI50,[1],> 100 µM (inactive)
same,GI50,[51],20.2 µM (inactive)
same,GI50,[2],42 µM (inactive)
same,GI50,[3],> 100 µM (inactive)
same,GI50,[52],22.3 µM (inactive)
same,GI50,[4],> 100 µM (inactive)
same,GI50,[5],> 100 µM (inactive)
same,GI50,[6],44.9 µM (inactive)
same,GI50,[53],11.8 µM (inactive)
same,GI50,[7],34.2 µM (inactive)
same,GI50,[8],42.4 µM (inactive)
same,GI50,[9],31.3 µM (inactive)
same,GI50,[10],16.4 µM (inactive)
same,GI50,[11],34.9 µM (inactive)
same,GI50,[12],> 100 µM (inactive)
same,GI50,[13],64.1 µM (inactive)
same,GI50,[14],> 100 µM (inactive)
same,GI50,[16],78.3 µM (inactive)
same,GI50,[17],> 100 µM (inactive)
same,GI50,[18],61.5 µM (inactive)
same,GI50,[54],43.7 µM (inactive)
same,GI50,[19],58.3 µM (inactive)
same,GI50,[20],91.8 µM (inactive)
same,GI50,[21],40 µM (inactive)
same,GI50,[23],38.2 µM (inactive)
same,GI50,[24],> 100 µM (inactive)
same,GI50,[25],67.3 µM (inactive)
same,GI50,[27],72.8 µM (inactive)
same,GI50,[28],54.5 µM (inactive)
same,GI50,[29],36.7 µM (inactive)
same,GI50,[30],34.6 µM (inactive)
same,GI50,[55],29.9 µM (inactive)
same,GI50,[31],35.2 µM (inactive)
same,GI50,[56],50.1 µM (inactive)
same,GI50,[32],> 100 µM (inactive)
same,GI50,[33],> 100 µM (inactive)
same,GI50,[34],36.9 µM (inactive)
same,GI50,[35],28.8 µM (inactive)
same,GI50,[36],38 µM (inactive)
same,GI50,[37],40.3 µM (inactive)
same,GI50,[38],> 100 µM (inactive)
same,GI50,[40],24.6 µM (inactive)
same,GI50,[41],> 100 µM (inactive)
same,GI50,[42],64.3 µM (inactive)
same,GI50,[43],27.5 µM (inactive)
same,GI50,[44],17 µM (inactive)
same,GI50,[45],> 100 µM (inactive)
same,GI50,[47],31.8 µM (inactive)
same,GI50,[48],28.6 µM (inactive)
same,GI50,[50],> 100 µM (inactive)
O=C(NO)c1ccc([N+](=O)[O-])cc1,GI50,[1],51.3 µM (inactive)
same,GI50,[51],18.3 µM (inactive)
same,GI50,[2],29.3 µM (inactive)
same,GI50,[3],44.7 µM (inactive)
same,GI50,[57],39.5 µM (inactive)
same,GI50,[4],50.8 µM (inactive)
same,GI50,[6],19.7 µM (inactive)
same,GI50,[53],20.7 µM (inactive)
same,GI50,[7],61 µM (inactive)
same,GI50,[8],> 100 µM (inactive)
same,GI50,[9],73.1 µM (inactive)
same,GI50,[10],26.9 µM (inactive)
same,GI50,[11],28.6 µM (inactive)
same,GI50,[12],64.9 µM (inactive)
same,GI50,[13],36.6 µM (inactive)
same,GI50,[14],37.8 µM (inactive)
same,GI50,[15],> 100 µM (inactive)
same,GI50,[16],43 µM (inactive)
same,GI50,[17],52.2 µM (inactive)
same,GI50,[18],30.7 µM (inactive)
same,GI50,[19],46.2 µM (inactive)
same,GI50,[20],94.2 µM (inactive)
same,GI50,[22],62.2 µM (inactive)
same,GI50,[23],25.8 µM (inactive)
same,GI50,[25],> 100 µM (inactive)
same,GI50,[26],27.1 µM (inactive)
same,GI50,[27],49.9 µM (inactive)
same,GI50,[28],25.2 µM (inactive)
same,GI50,[30],24.5 µM (inactive)
same,GI50,[55],43.8 µM (inactive)
same,GI50,[31],31 µM (inactive)
same,GI50,[56],40.8 µM (inactive)
same,GI50,[33],23.4 µM (inactive)
same,GI50,[34],50.2 µM (inactive)
same,GI50,[35],42.1 µM (inactive)
same,GI50,[36],24.8 µM (inactive)
same,GI50,[37],48 µM (inactive)
same,GI50,[38],26 µM (inactive)
same,GI50,[39],27.2 µM (inactive)
same,GI50,[40],23.9 µM (inactive)
same,GI50,[41],37.3 µM (inactive)
same,GI50,[42],25.1 µM (inactive)
same,GI50,[43],64.4 µM (inactive)
same,GI50,[44],21 µM (inactive)
same,GI50,[45],31.1 µM (inactive)
same,GI50,[58],64.3 µM
same,GI50,[46],32.1 µM (inactive)
same,GI50,[47],70.3 µM (inactive)
same,GI50,[49],21.9 µM (inactive)
same,GI50,[50],40.9 µM (inactive)
CC1=NN(C(=O)Cc2ccccc2)C(=O)/C1=C/c1c(O)ccc2ccccc12,GI50,[1],10 µM (inactive)
same,GI50,[2],> 100 µM (inactive)
same,GI50,[3],48.6 µM (inactive)
same,GI50,[57],27 µM (inactive)
same,GI50,[4],39.4 µM (inactive)
same,GI50,[5],30.3 µM (inactive)
same,GI50,[53],49.2 µM (inactive)
same,GI50,[7],92.5 µM (inactive)
same,GI50,[8],83.9 µM (inactive)
same,GI50,[9],1.68 µM (inactive)
same,GI50,[10],15.8 µM (inactive)
same,GI50,[11],37.5 µM (inactive)
same,GI50,[12],68.5 µM (inactive)
same,GI50,[13],61.7 µM (inactive)
same,GI50,[14],> 100 µM (inactive)
same,GI50,[17],33 µM (inactive)
same,GI50,[18],45.9 µM (inactive)
same,GI50,[54],45.7 µM (inactive)
same,GI50,[19],50.8 µM (inactive)
same,GI50,[20],34.1 µM (inactive)
same,GI50,[21],28.1 µM (inactive)
same,GI50,[23],22.8 µM (inactive)
same,GI50,[25],55.5 µM (inactive)
same,GI50,[26],> 100 µM (inactive)
same,GI50,[28],37.2 µM (inactive)
same,GI50,[29],78.9 µM (inactive)
same,GI50,[30],29.2 µM (inactive)
same,GI50,[55],50.5 µM (inactive)
same,GI50,[31],40.6 µM (inactive)
same,GI50,[56],27.5 µM (inactive)
same,GI50,[32],35.8 µM (inactive)
same,GI50,[33],40.7 µM (inactive)
same,GI50,[34],69 µM (inactive)
same,GI50,[35],34.1 µM (inactive)
same,GI50,[36],22.2 µM (inactive)
same,GI50,[37],57.3 µM (inactive)
same,GI50,[38],23.3 µM (inactive)
same,GI50,[39],33.2 µM (inactive)
same,GI50,[40],29.6 µM (inactive)
same,GI50,[41],56.9 µM (inactive)
same,GI50,[43],> 100 µM (inactive)
same,GI50,[44],67.9 µM (inactive)
same,GI50,[45],> 100 µM (inactive)
same,GI50,[58],2.21 µM
same,GI50,[46],1.7 µM (inactive)
same,GI50,[47],96.6 µM (inactive)
same,GI50,[48],49.1 µM (inactive)
same,GI50,[50],10 µM (inactive)
